These are literature values, as cited in patent publication US10179139B2, “Pharmaceutical composition” (CIPLA Limited, priority 2010, dated 2019).

For the series the following is noted: in vivo.

As for `CCc1cc2c(cc1CC)CC(NC[C@H](O)c1ccc(O)c3[nH]c(=O)ccc13)C2` [Indacaterol, (R)-5-[2-[(5,6-Diethyl-2,3-dihydro-1H-inden-2-yl)amino]-1-hydroxyethyl]-8-hydroxyquinolin-2(1H)-one], the duration of action entry is reported as “more than 24 hrs”. Regarding `C[N+]1(C)[C@@H]2C[C@@H](OC(=O)C(O)(c3cccs3)c3cccs3)C[C@H]1[C@@H]1O[C@@H]12` [Tiotropium, (1α, 2β, 4β, 5α, 7β)-7-[(Hydroxydi-2-thienylacetyl)oxy]-9,9-dimethyl-3-oxa-9-azoniatricyclo[3.3.1.0^2,4]nonane bromide monohydrate], the duration of action entry is reported as “up to 32 hours”.
